Patent US20150133436A1, “Bromodomain Inhibitors For Treating Autoimmune And Inflammatory Diseases” (GlaxoSmithKline LLC, priority 2009, published 2015)

Assays:
[1] = test system: TNFα; assay: Lipopolysaccharide (LPS) stimulated whole blood measuring TNFα levels assay; assay type: cell-based; conditions: LPS 200 ng/ml, 24 hours, read-out: pIC50, TNFα levels in LPS stimulated whole blood (converted)
Procedure: Activation of monocytic cells by agonists of toll-like receptors such as bacterial lipopolysaccharide (LPS) results in production of key inflammatory mediators including TNFα. Such pathways are widely considered to be central to the pathophysiology of a range of auto-immune and inflammatory disorders.
After further incubation for 24 hours at 37 degrees, 140 ul of PBS are added to each well. The plates are sealed, shaken for 10 minutes and then centrifuged (2500 rpm×10 min). 100 ul of the supernatant are removed and TNFα levels assayed by immunoassay (typically by MesoScale Discovery technology) either immediately or following storage at −20 degrees. Dose response curves for each compound was generated from the data and an IC50 value was calculated.

[2] = test system: Balb/c male mice given a lethal dose of LPS; assay: In vivo mouse endotoxemia model; conditions: 15 mg/kg LPS i.p., compound 10 mg/kg intravenously ninety minutes later; for Numbers of animals surviving at 4 days (summed across multiple repeat experiments): survivors/total
Excerpt: High doses of Endotoxin (bacterial lipopolysaccharide) administered to animals produce a profound shock syndrome including a strong inflammatory response, dysregulation of cardiovascular function, organ failure and ultimately mortality. This pattern of response is very similar to human sepsis and septic shock, where the body's response to a significant bacterial infection can be similarly life threatening.
To test the compounds for use in the invention groups of eight Balb/c male mice were given a lethal dose of 15 mg/kg LPS by intraperitoneal injection. Ninety minutes later, animals were dosed intravenously with vehicle (20% cyclodextrin 1% ethanol in apyrogen water) or compound (10 mg/kg). The survival of animals was monitored at 4 days.

| Compound | IC50 [1] [nM] | Animals surviving at 4 days, percent [2] | Numbers of animals surviving at 4 days (summed across multiple repeat experiments) [2] | melting point [°C] |
| --- | --- | --- | --- | --- |
| CNCc1ccc(-c2ccc3c(c2)[C@H](NC(=O)OC(C)C)C[C@H](C)N3C(C)=O)cc1 [Example 1, 1-methylethyl ((2S,4R)-1-acetyl-2-methyl-6-{4-[(methylamino)methyl]phenyl}-1,2,3,4-tetrahydro-4-quinolinyl)carbamate] | ≤ 1000 | – | – | – |
| COc1cc2c(cc1-c1c(C)noc1C)ncc1[nH]c(=O)n([C@H](C)c3ccccn3)c12 [Example 3, 7-(3,5-dimethyl-4-isoxazolyl)-8-(methoxy)-1-[(1R)-1-(2-pyridinyl)ethyl]-1,3-dihydro-2H-imidazo[4,5-c]quinolin-2-one] | ≤ 1000 | (83%) | 55/66 | – |
| COc1cc2c(cc1-c1c(C)noc1C)ncc1nc(C3CCOCC3)n([C@H](C)c3ccccc3)c12 [Example 4, 7-(3,5-dimethyl-4-isoxazolyl)-8-(methoxy)-1-[(1R)-1-phenylethyl]-2-(tetrahydro-2H-pyran-4-yl)-1H-imidazo[4,5-c]quinoline] | ≤ 1000 | (38%) | 9/24 | – |
| CC(=O)N1c2ccc(-c3ccc(C(=O)O)cc3)cc2[C@H](Nc2ccc(Cl)cc2)C[C@@H]1C [Example 5, 4-{(2S,4R)-1-acetyl-4-[(4-chlorophenyl)amino]-2-methyl-1,2,3,4-tetrahydro-6-quinolinyl}benzoic acid] | ≤ 1000 | (58%) | 14/24 | – |
| Cc1nnc2c(NC(N)=O)cc3cc(-c4ccc(CN5CCCCC5)cc4)ccc3n12 [Example 6, N-{1-methyl-7-[4-(1-piperidinylmethyl)phenyl][1,2,4]triazolo[4,3-a]quinolin-4-yl}urea] | ≤ 1000 | – | – | > 260 |
